{
  "source": "patent US20090030086A1",
  "about": "“ANTIMICROBIAL AGENTS” (priority 2005, published 2009)",
  "key": {"[1]": {"test_system": "P. granulosum PPR-006", "assay": "Disc diffusion assay (DDA)", "type": "cell-based", "details": "resistance MLS, 200 μg per disc", "procedure": "The Propionibacterium spp organisms were cultured and maintained on Wilkins-Chalgren Anaerobe Medium (agar and broth) at pH 6.0; cultures were incubated anaerobically at 37° C. for 72 hours.\n(§1) A sterile paper disc was impregnated with a sample of the test compound and a minimum of 30 minutes allowed for the solvents to evaporate as far as possible. The disc was then placed on an agar plate onto which the test micro-organism had been inoculated. The plate was then incubated under the conditions described above, following which it was examined visually for signs of bacterial growth. If the test compound had antimicrobial activity, a circular zone of no growth would be obtained around the disc. The diameter of this zone of “inhibition” was measured using a ProtoCOL™ automated zone sizer (Synbiosis, Cambridge, UK). In general, a greater diameter and/or area of the zone of inhibition indicates a greater antimicrobial activity in the relevant test compound, although other factors such as test compound mobility through the agar gel may also influence the result.\nThe area of the zone of inhibition was calculated from the measured zone diameter (D) using the formula π(D/2)^2.\nFor the DDA assays, 200 μg of TBHQ was loaded onto each disc. The solvent used for the TBHQ was ethanol."}, "[2]": {"test_system": "S. pyogenes ATCC 12344", "assay": "Disc diffusion assay (DDA)", "type": "cell-based, Streptococcus pyogenes", "details": "200 μg per disc", "procedure": "The S. pyogenes strain was cultured and maintained on Mueller-Hinton agar with 5% v/v defibrinated horse blood, and grown in Mueller-Hinton broth supplemented with 5% lysed horse blood (lysed horse blood was prepared as described in the NCCLS M7-A6 Vol. 23 No. 2); cultures were incubated aerobically at 37° C. for 24 hours.\nas §1\nThe area of the zone of inhibition was calculated from the measured zone diameter (D) using the formula π(D/2)^2. […]"}, "[3]": {"test_system": "S. aureus ATCC 29213", "assay": "MBC assay", "type": "cell-based, Staphylococcus aureus", "outline": "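Follows an MIC assay; samples sub-cultured onto non-selective agar and inspected visually for growth to give the minimum lethal concentration. Culture on Mueller-Hinton medium, pH 7.2, aerobic, 37° C, 24 hours.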"}},
  "data": [
    {"smiles": "CC(C)(C)c1cc(O)ccc1O", "note": "[TBHQ, 2-t-butyl hydroquinone]", "values": [
      {"measurement": "DDA", "setting": "[1]", "result": 20.00, "unit": "mm"},
      {"measurement": "DDA", "setting": "[2]", "result": 50.67, "unit": "mm"},
      {"measurement": "MIC/MBC ratio", "setting": "[3]", "result": 1}
    ]}
  ]
}
